The values that follow come from ChEMBL document CHEMBL1147214, “Tetraplex DNA specific ligands based on the fluorenone-carboxamide scaffold” (Bioorg Med Chem Lett, 2007).

Structures are written as SMILES.

Test [1] concerns Salmonidae. Briefly: Effect on Salmon testes DNA stabilization assessed as thermal denaturation at 100 uM. It counts as functional.
In test [2] the test system is Salmonidae. Briefly: Binding affinity to Salmon testes DNA.

Regarding `O=C(NCCO)c1cccc2c1-c1ccccc1C2=O`, the ΔTm (in general, the shift of the melting midpoint relative to a reference) with Salmonidae [1] was 1.9 °C.
The same measure, in the same setting: the value for `CC(O)CNC(=O)c1cccc2c1-c1ccccc1C2=O` (stereo unspecified) was 2.1 °C.
As for `CN(C)CCNC(=O)c1cccc2c1-c1ccccc1C2=O`, the Ka with Salmonidae [2] is 3.3 10^3/M. In addition, the ΔTm in the test with Salmonidae [1] was 0.2 °C.
`O=C(NCCCCO)c1cccc2c1-c1ccccc1C2=O`: the ΔTm with Salmonidae [1] was -0.8 °C.
As for `O=C(NCCCN1CCOCC1)c1cccc2c1-c1ccccc1C2=O`, the Ka with Salmonidae [2] was 2.3 10^4/M. In the test with Salmonidae [1], the shift in melting temperature (ΔTm) is -0.8 °C.
As for `O=C(NCCOCCO)c1cccc2c1-c1ccccc1C2=O`, the ΔTm with Salmonidae [1] is 0.2 °C.
On to `CCN(CC)CCNC(=O)c1cccc2c1-c1ccccc1C2=O`, for which the Ka with Salmonidae [2] is 7.8 10^4/M. Moreover, the ΔTm in the test with Salmonidae [1] worked out at 2.1 °C.
For `O=C(NCCCO)c1cccc2c1-c1ccccc1C2=O`, the Ka in the test with Salmonidae [2] was 8.4 10^3/M. The ΔTm with Salmonidae [1] worked out at 3.1 °C.
Turning to `O=C(NCCN1CCOCC1)c1cccc2c1-c1ccccc1C2=O`, in the test on Salmonidae [2], the Ka is 1.6 10^5/M. In the test with Salmonidae [1], the ΔTm was found to be 1.2 °C.
The corresponding values for `CN(C)CCCNC(=O)c1cccc2c1-c1ccccc1C2=O` are 3.1 10^4/M and 2.1 °C.
